The source of these data is patent publication US10807994B2, “Heterocyclic compounds and uses thereof” (NUVATION BIO INC., priority 2017, dated 2020).

The structures appear in SMILES notation. Counter-ions that a name gives are not always drawn. Like-named read-outs stand apart in the source and are kept apart here.

One assay has as its target WEE1 kinase enzyme (Homo sapiens (Human), UniProt P30291). Kind of assay: WEE1 IC50 determination, LanthaScreen Terbium labeled TR-FRET kinase assay. The assay is classed as biochemical. To be noted: WEE1 enzyme 1 nM. The method, then: IC50 values of compounds against WEE1 kinase enzyme were determined by LanthaScreen™ Terbium Labeled TR-FRET assay. Kinase assays were performed in 1× kinase buffer (# PV6135, Invitrogen, Life Technologies Grand Island, N.Y.) where total reaction volume was 10 μl in low-volume 384-well plates (#4511, Corning). Serially diluted compounds (3-fold) were incubated with WEE1 Enzyme (1 nM) (# PR7373A, Invitrogen, Life Technologies Grand Island, N.Y.) for 10 min, following which a mixture of ATP […] (# A1852, Sigma, St-Louis, Mo.) and fluorescent-PolyGT substrate (200 nM) (# PV3610, Invitrogen, Life Technologies Grand Island, N.Y.) was added and incubated in dark at room temperature for 1 h. After 1 h, 10 μl stop solution containing Terbium labeled antibody (4 nM) (# PV3529, Invitrogen, Life Technologies Grand Island, N.Y.) and EDTA (# E5134, Sigma, St-Louis, Mo.) (20 mM) in TR-FRET dilution buffer (# PV3574, Invitrogen, Life Technologies Grand Island, N.Y.) was added. Readings were taken in a Synergy Neo Plate reader (BioTek, Winooski) at single excitation of 340 nm and Dual emission at 495 nm and 520 nm respectively.
The % activity of test samples was calculated as (Sample−Min)*100/(Max−Min). [Max: DMSO control, complete reaction with enzyme & DMSO and Min: No enzyme & DMSO]. Percent inhibition (100-% activity) was fitted to the “four-parameter logistic model” in XLfit for determination of IC50 values.
(In TR-FRET formats the signal depends on donor and acceptor labels being close together.)

Another assay has as its system A427 cells. Put plainly: Cytotoxicity assay (resazurin), A427 cells, 72 hr. It counts as cell-based. As to the method:
(§1) A549 (CCL-185; ATCC) and A427 (HTB-53; ATCC), both lung epithelial cell lines were seeded in their respective medium (DMEM/MEM, 10569044/41090101; Gibco) at a cell count of 1500 cells per 100 μL per well in a 96 well edge plate (167425; ThermoFisher). Cells were allowed to grow at 37° C. for 24 hr in 5% CO2 environment (culture conditions) in a Nuaire incubator (humidified). Serially diluted test compounds (100 μL) within the desired testing concentration ranges were added to the culture plate were further incubated in culture conditions for 72 hr and 96 hr for A427 and A549 respectively. The experiment was terminated at the designated incubation time by replacing the medium with 100 μL of 1 mM of resazurin (R7017; Sigma) prepared in respective culture medium, and the plates were further incubated in culture conditions for 4-6 hr. Fluorescence was recorded using a multimodal plate reader (Biotek Synergy Neo) at an excitation wavelength of 535 nm and emission wavelength of 590 nm to obtain relative fluorescence units. Data analysis was done by subtracting the background fluorescence (only medium blank) value from each reading and then normalizing with the vehicle control (DMSO treated cells) to obtain percent survival/proliferation. Percent survival was then subtracted by 100 to get the percent inhibition of proliferation which was used to calculate IC50 values. Potency of compounds in other cell lines (As-Pc-1, Panc-10.05, MDAMB231, A172) was determined in an analogous manner.
Background: Alamar Blue is a resazurin reagent that responds to reducing activity.

A further assay deals with A549 cells. Put plainly: Cytotoxicity assay (resazurin), A549 cells, 96 hr. The assay is classed as cell-based. The settings on record: read-out: Cell Viability A549 IC50. The method, then: as §1
Where [1] appears, read: Homo sapiens, A-427, read-out: Cell Viability A427 IC50.

WEE1 kinase enzyme, sequence (P30291 whole entry): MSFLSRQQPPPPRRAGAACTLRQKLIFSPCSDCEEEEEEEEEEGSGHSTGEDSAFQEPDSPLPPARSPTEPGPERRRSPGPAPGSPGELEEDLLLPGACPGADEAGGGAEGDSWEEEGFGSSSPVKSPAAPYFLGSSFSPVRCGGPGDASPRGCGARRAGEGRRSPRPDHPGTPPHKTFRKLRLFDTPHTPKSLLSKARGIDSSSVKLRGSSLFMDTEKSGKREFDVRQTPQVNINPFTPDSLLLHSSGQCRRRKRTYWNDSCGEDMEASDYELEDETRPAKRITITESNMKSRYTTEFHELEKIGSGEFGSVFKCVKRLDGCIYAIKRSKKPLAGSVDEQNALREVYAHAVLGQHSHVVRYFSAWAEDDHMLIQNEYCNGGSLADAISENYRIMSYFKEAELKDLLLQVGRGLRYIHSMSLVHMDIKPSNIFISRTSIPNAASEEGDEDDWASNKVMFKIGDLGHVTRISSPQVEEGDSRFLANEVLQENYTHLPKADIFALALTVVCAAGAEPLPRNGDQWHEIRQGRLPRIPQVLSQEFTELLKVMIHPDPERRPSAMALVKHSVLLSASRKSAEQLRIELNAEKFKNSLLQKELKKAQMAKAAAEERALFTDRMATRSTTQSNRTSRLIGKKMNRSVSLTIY

Broadly, the IC50 is the concentration that inhibits the measured activity by half. Regarding `CN1CCN(c2ccc(Nc3ncc4c(n3)OCN(c3c(Cl)cccc3Cl)C4=O)cc2)CC1` [Example 1.1], the half-inhibitory concentration (IC50) at WEE1 kinase enzyme was found to be 0.056 µM; with A427 cells (setting [1]), 4.47 µM; with A549 cells (Homo sapiens), 9.7 µM.

For the compound `Cc1cc(Nc2ncc3c(n2)OCN(c2c(Cl)cccc2Cl)C3=O)ccc1N1CCNCC1` [Example 1.33, 3-(2,6-dichlorophenyl)-7-(3-methyl-4-(piperazin-1-yl)phenylamino)-2H-pyrimido[5,4-e][1,3]oxazin-4(3H)-one], the IC50 was 0.05 µM on WEE1 kinase enzyme, 2.82 µM in the assay on A427 cells (setting [1]) and 2.69 µM with A549 cells (Homo sapiens).

Take `O=C1c2cnc(Nc3ccc(C4CCNCC4)c(CO)c3)nc2OCN1c1c(Cl)cccc1Cl` [Example 1.34, 3-(2,6-dichlorophenyl)-7-(3-(hydroxymethyl)-4-(piperidin-4-yl)phenylamino)-2H-pyrimido[5,4-e][1,3]oxazin-4(3H)-one]: the IC50 was found to be 0.014 µM at WEE1 kinase enzyme, 4.81 µM with A427 cells (read-out: Cell Viability A427 IC50) and 21 µM in the assay with A549 cells.

Turning to `CN1CCc2ccc(Nc3ncc4c(n3)OCN(c3c(Cl)cccc3Cl)C4=O)cc2C1` [Example 1.35, 3-(2,6-dichlorophenyl)-7-(2-methyl-1,2,3,4-tetrahydroisoquinolin-7-ylamino)-2H-pyrimido[5,4-e][1,3]oxazin-4(3H)-one], the IC50 worked out at 0.035 µM at WEE1 kinase enzyme and 11.1 µM in the assay with A549 cells (Homo sapiens).

In the case of `O=C1c2cnc(Nc3ccc(N4CCNCC4)nc3)nc2OCN1c1c(Cl)cccc1Cl` [Example 1.36, 3-(2,6-dichlorophenyl)-7-((6-(piperazin-1-yl)pyridin-3-yl)amino)-2,3-dihydro-4H-pyrimido[5,4-e][1,3]oxazin-4-one], the half-inhibitory concentration (IC50) at WEE1 kinase enzyme amounted to 0.104 µM; in the assay with A427 cells (setting [1]) it was 10.4 µM; with A549 cells (Homo sapiens), 8.12 µM.

Regarding `O=C1c2cnc(Nc3ccc(N4CCNC[C@@H]4CO)cc3)nc2OCN1c1c(Cl)cccc1Cl` [Example 1.37, (R)-3-(2,6-dichlorophenyl)-7-(4-(2-(hydroxymethyl)piperazin-1-yl)phenylamino)-2H-pyrimido[5,4-e][1,3]oxazin-4(3H)-one], the IC50 was 0.113 µM at WEE1 kinase enzyme and 9.82 µM in the assay with A549 cells (Homo sapiens).

On to `O=C1c2cnc(Nc3ccc(N4CCNC[C@H]4CO)cc3)nc2OCN1c1c(Cl)cccc1Cl` [Example 1.38, (S)-3-(2,6-dichlorophenyl)-7-(4-(2-(hydroxymethyl)piperazin-1-yl)phenylamino)-2H-pyrimido[5,4-e][1,3]oxazin-4(3H)-one], for which the half-inhibitory concentration (IC50) was determined as 0.176 µM on WEE1 kinase enzyme and 9.15 µM with A549 cells (Homo sapiens).

As for `O=C1c2cnc(Nc3ccc(N4CCNCC4)cc3)nc2OCN1c1c(F)cccc1F` [Example 1.39, 3-(2,6-difluorophenyl)-7-(4-(piperazin-1-yl)phenylamino)-2H-pyrimido[5,4-e][1,3]oxazin-4(3H)-one], the results for the half-inhibitory concentration (IC50) on WEE1 kinase enzyme and with A549 cells (Homo sapiens) were 0.54 µM and 10.5 µM, respectively.

Consider `O=C1c2cnc(Nc3ccc(N4CCNCC4)c(Cl)c3)nc2OCN1c1c(Cl)cccc1Cl` [Example 1.40, 7-(3-chloro-4-(piperazin-1-yl)phenylamino)-3-(2,6-dichlorophenyl)-2H-pyrimido[5,4-e][1,3]oxazin-4(3H)-one], for which the IC50 on WEE1 kinase enzyme amounted to 0.02 µM; in the assay with A427 cells (setting [1]), 2.65 µM; with A549 cells (Homo sapiens) it was 2.73 µM.

In the case of `O=C1CNCCN1c1ccc(Nc2ncc3c(n2)OCN(c2c(Cl)cccc2Cl)C3=O)cc1` [Example 1.41, 3-(2,6-dichlorophenyl)-7-((4-(2-oxopiperazin-1-yl)phenyl)amino)-2,3-dihydro-4H-pyrimido[5,4-e][1,3]oxazin-4-one], the results for the IC50 at WEE1 kinase enzyme and with A549 cells (Homo sapiens) were 0.791 µM and > 30 µM, respectively.

Turning to `CN1CCC(c2ccc(Nc3ncc4c(n3)OCN(c3c(Cl)cccc3Cl)C4=O)cc2CO)CC1` [Example 1.42, 3-(2,6-dichlorophenyl)-7-(3-(hydroxymethyl)-4-(1-methylpiperidin-4-yl)phenylamino)-2H-pyrimido[5,4-e][1,3]oxazin-4(3H)-one], the IC50 is 0.025 µM on WEE1 kinase enzyme, 3.2 µM with A427 cells (setting [1]) and 5.6 µM in the assay with A549 cells (Homo sapiens).

For the compound `CN1CCN(c2ccc(Nc3ncc4c(n3)OCN(c3c(Cl)cncc3Cl)C4=O)cc2)CC1` [Example 1.43, 3-(3,5-dichloropyridin-4-yl)-7-(4-(4-methylpiperazin-1-yl)phenylamino)-2H-pyrimido[5,4-e][1,3]oxazin-4(3H)-one], the 50% inhibitory concentration (IC50) on WEE1 kinase enzyme worked out at 0.479 µM; with A549 cells (Homo sapiens), 22.1 µM.

For the compound `O=C1c2cnc(Nc3ccc4c(c3)CCNC4)nc2OCN1c1c(Cl)cccc1Cl` [Example 1.44, 3-(2,6-dichlorophenyl)-7-(1,2,3,4-tetrahydroisoquinolin-6-ylamino)-2H-pyrimido[5,4-e][1,3]oxazin-4(3H)-one], the 50% inhibitory concentration (IC50) on WEE1 kinase enzyme was 0.023 µM; in the assay on A549 cells (Homo sapiens), 5.79 µM.

Regarding `O=C1c2cnc(Nc3ccc(N4CCC(O)CC4)cc3)nc2OCN1c1c(Cl)cccc1Cl` [Example 1.45, 3-(2,6-dichlorophenyl)-7-(4-(4-hydroxypiperidin-1-yl)phenylamino)-2H-pyrimido[5,4-e][1,3]oxazin-4(3H)-one], the IC50 on WEE1 kinase enzyme was 0.288 µM; in the assay with A549 cells (Homo sapiens), > 30 µM.

Turning to `NCC(=O)N1CCN(c2ccc(Nc3ncc4c(n3)OCN(c3c(Cl)cccc3Cl)C4=O)cc2)CC1` [Example 1.46, 7-(4-(4-(2-aminoacetyl)piperazin-1-yl)phenylamino)-3-(2,6-dichlorophenyl)-2H-pyrimido[5,4-e][1,3]oxazin-4(3H)-one], the results for the IC50 on WEE1 kinase enzyme and with A549 cells (Homo sapiens) were 0.053 µM and 9.86 µM, respectively.

Turning to `C[C@@H]1CN[C@@H](C)CN1c1ccc(Nc2ncc3c(n2)OCN(c2c(Cl)cccc2Cl)C3=O)cc1` [Example 1.47, 3-(2,6-dichlorophenyl)-7-(4-((2R,5S)-2,5-dimethylpiperazin-1-yl)phenylamino)-2H-pyrimido[5,4-e][1,3]oxazin-4(3H)-one hydrochloride], the concentration for half-maximal inhibition (IC50) on WEE1 kinase enzyme turned out to be 0.07 µM; with A427 cells (setting [1]), 7.1 µM; in the assay on A549 cells (Homo sapiens), 4.1 µM.

`CNCCOc1ccc(Nc2ncc3c(n2)OCN(c2c(Cl)cccc2Cl)C3=O)cc1` [Example 1.48, 3-(2,6-dichlorophenyl)-7-(4-(2-(methylamino)ethoxy)phenylamino)-2H-pyrimido[5,4-e][1,3]oxazin-4(3H)-one]: the half-inhibitory concentration (IC50) at WEE1 kinase enzyme amounted to 0.103 µM; with A427 cells (setting [1]) it was 11.1 µM; in the assay on A549 cells (Homo sapiens), 8.38 µM.

Consider `C[C@@H]1CNCCN1c1ccc(Nc2ncc3c(n2)OCN(c2c(Cl)cccc2Cl)C3=O)cc1` [Example 1.49, (R)-3-(2,6-dichlorophenyl)-7-(4-(2-methylpiperazin-1-yl)phenylamino)-2H-pyrimido[5,4-e][1,3]oxazin-4(3H)-one], for which the IC50 was 0.041 µM on WEE1 kinase enzyme, 5.42 µM with A427 cells (setting [1]) and 4.39 µM in the assay on A549 cells (Homo sapiens).

`COc1cc(Nc2ncc3c(n2)OCN(c2c(Cl)cccc2Cl)C3=O)ccc1C1CCNCC1` [Example 1.50, 3-(2,6-dichlorophenyl)-7-(3-methoxy-4-(piperidin-4-yl)phenylamino)-2H-pyrimido[5,4-e][1,3]oxazin-4(3H)-one]: the IC50 at WEE1 kinase enzyme was 0.028 µM; with A427 cells (setting [1]) it was 3.48 µM; with A549 cells (Homo sapiens) it was 2.79 µM.

Turning to `CN1CCC(c2ccc(Nc3ncc4c(n3)OCN(c3c(Cl)cccc3Cl)C4=O)cc2)CC1` [Example 1.52, 3-(2,6-dichlorophenyl)-7-(4-(1-methylpiperidin-4-yl)phenylamino)-2H-pyrimido[5,4-e][1,3]oxazin-4(3H)-one], the values for the IC50 at WEE1 kinase enzyme, in the assay on A427 cells (setting [1]) and in the assay on A549 cells (Homo sapiens) were 0.0505 µM, 3.35 µM and 4.72 µM, respectively.

`CNCCNc1ccc(Nc2ncc3c(n2)OCN(c2c(Cl)cccc2Cl)C3=O)cc1` [Example 1.54, 3-(2,6-dichlorophenyl)-7-(4-(2-(methylamino)ethylamino)phenylamino)-2H-pyrimido[5,4-e][1,3]oxazin-4(3H)-one Hydrochloride]: the half-maximal inhibitory concentration (IC50) on WEE1 kinase enzyme turned out to be 0.2 µM; in the assay with A427 cells (setting [1]) it was 10.5 µM; in the assay on A549 cells (Homo sapiens), 9.58 µM.
